Assay results: PMC7156724, “Potent BRD4 inhibitor suppresses cancer cell-macrophage interaction” (Nature Communications, 2020)
Values joined by “and” are separate entries in the source; they are usually repeats but may differ in a detail not shown here. Identical values can stand only once.

Key:
TAMs = assay: Transwell 2D co-culture of pretreated A2780 cells and TAMs, colonies; format: cell-based, mouse
Experimental: CD45^+CD11b^+F4/80^+ TAMs were isolated from peritoneal metastasis of A2780 tumor-bearing mice and cultured in RPMI-1640 supplemented with 10% FBS, 1% penicillin/streptomycin, and 0–50 ng/ml CSF1 (R&D Systems) as indicated according to standard protocols. In the cancer cell-macrophage co-culture experiments, CSF1 was not added. In the transwell (Corning, pore size, 0.4 μm) co-culture experiments, tumor cells were placed into the upper chamber, and TAMs were seeded into the lower chamber. […]
with anti-CD45, CD11b and CD206 followed by FACS analysis. Shown are representative FACS plots (c) and quantification of the percentage of CD11b+CD206+ cells (d). Data are presented as mean ± SEM from 5 different mice. p values were calculated using two-tailed, unpaired t tests. **, p<0.01; ***, p<0.001. […] Quantification of spheroid volumes (f). Data are presented as mean ± SEM from 15 independent experiments. p values were calculated using two-tailed, unpaired t tests. **, p<0.01. […]
CD45+F4/80 +CD11b+CD206+ TAMs were isolated from tumors of ovarian cancer-bearing donor m i c e. Sh o wn are schematics of the experiment (g), representative images (h) and quantification of colonies (i). Data are presented as mean ± SEM from 3 independent experiments. p values were calculated using two-tailed, unpaired t tests. **, p<0.01; ***, p<0.001. […]

[1] = tested on: phosphorylated BRD4 and c-MYC; assay: Western blot of p-BRD4, BRD4 and c-MYC in solid tumor cell lines; format: cell-based, human; conditions: 24 h
Experimental: Fig. 2 NHWD-870 inhibited BRD4 phosphorylation and c-MYC expression, and suppressed cell growth. a Representative western blot analysis of p-BRD4 (s484/488), BRD4, c-MYC, and GAPDH after treatment of MDA-MB231, SUM159, A2780 ES-2, and H526 cells with JQ-1 or NHWD-870 at the indicated concentrations for 24 h. GAPDH served as the loading control. Selected from three independent experiments. b MTT assays of H526, A2780, ES-2, and MDA-MB231 cells treated with JQ-1 or NHWD-870 at the indicated concentrations for 5 days. Data are presented as mean ± SEM from three independent experiments. c, d Clonogenic assays of H526, A2780, ES-2 and MDA-MB231 cells treated with 250 nM JQ-1 or NHWD-870 for 5 days. Shown are representative images (c) and quantification of colonies (d). […] Shown are representative images (e) and quantification of relative colony sizes (f). Scale bar, 50 μm. Data are presented as mean ± SEM from five independent experiments. p values were calculated using two-tailed, unpaired t tests in this figure. **p < 0.01; ***p < 0.001. Source data are provided as a Source Data file. […]
4. Protein extraction and w estern blot anal ysis. Freshly dissected unfixed tissue was homogenized in lysis buffer. The lysates were centrifuged at 13,000g for 10 minutes at 4°C. Supernatants were collected and determined with a Bradford Protein Assay kit (Bio-Rad, Hercules, CA). The cell lysates were subjected to SDS-PAGE followed by immunoblotting (Immobilon P; Millipore, Milford, MA) with specific antibodies followed by detection using an enhanced chemilumine scence kit (Amersham Life Science, Arlington Heights, IL). […]

H526 SCLC tumors = assay: H526 SCLC xenograft tumor growth; format: in vivo, mouse; conditions: for Tumor volume: Fig.3a, n=6, individual animals
Excerpt: PO, oral administration; QD, once daily; BID, twice daily. b–d Tumor growth curves for A2780 ovarian tumor (n = 5) (b), TMD8 large B cell lymphoma (n = 6) (c), and B16F10 melanoma (n = 5) (d) bearing mice treated with the indicated compounds once daily for 11-21 days. e, f Tumor growth curves for A375 melanoma (n = 6) (e), and patient-derived xenograft (PDX) of melanoma (n = 5) (f) bearing mice treated with the indicated compounds once daily (5 days on, 2 days off) for 21 days. For d–f, NHWD-870 used is NHWD-870-HCl synthesized using Suzuki coupling route. Data are presented as mean ± SEM in (a, b, d, f) and mean + SEM in (c, e). p values were calculated using two-tailed, unpaired t tests. *p < 0.05; **p < 0.01; ***p < 0.001. Source data are provided as a Source Data file.
4–6 weeks old female BALB/c nude mice were used for most experiments, with the exception of 6–8 weeks old female C57BL/6 mice were used for B16F10 experiments, and 6–8 weeks old male BALB/c nude mice and SD rats were used for pharmacokinetic experiments. All animals were purchased from Shanghai SIPPR-Bk Lab Animal Co., Ltd. All animals were housed under a regimen of 12 h light/12 h dark cycles and specific pathogen-free conditions. 5×10^6 NCI-H526, ES-2, MDA-MB231, A2780, A375, B16F10, and TMD-8 cells (0.1 ml) were injected subcutaneously into female nude mice. The melanoma patient-derived xenograft model was derived from a human melanoma sample (BRAF, NARS and NF1 wild type, and p53 mutant) removed from a patient in Xiangya Hospital. Surgically removed tumor fragments were implanted subcutaneously into female NSG mice. When the tumors grew to ~1000 mm^3, they were harvested and cryopreserved or immediately re-implanted for expansion or experiments. Mouse body weight and tumor sizes were measured every 3 days. Once the tumors grew to 150–200 mm^3, mice were treated with the compounds as described in the Figures. 1 × 10^6 A2780 cells (1 ml) were injected into the abdominal cavity of nude mice. Ascitic volume and tumor weight were measured by an electronic balance. All the procedures were evaluated and approved by the Institutional Animal Care and Use Committee of Central South University and Yale University.

Cc1nnn(C)c1-c1cnc2c3c4cnn(C)c4ccc3n([C@H](c3ccccc3)C3CCOCC3)c2c1 [NHWD-870]
fold decrease of the growth of TAMs (TAMs; 50 nM, 2D system): about 6 fold
growth of TAMs in 2D co-culture system (TAMs; A2780 pre-treated with 25 or 50 nM for 48h): potently decreased the growth of TAMs in a dose-dependent manner
effect on phosphorylated BRD4 and c-MYC (western blot) ([1]; 10 nM): depletion of phosphorylated BRD4 and c-MYC
effect on the stability of BRD4 (western blot) [1]: minimal effects on the stability of BRD4
Tumor volume (H526 SCLC tumors; 0.75mg/kg p.o. QD x 21D, day 0): 192.244 mm^3 and 263.88 mm^3 and 212.226 mm^3 and 157.172 mm^3 and 251.256 mm^3 and 74.1662 mm^3
Tumor volume (H526 SCLC tumors; 0.75mg/kg p.o. QD x 21D, day 3): 395.966 mm^3 and 556.678 mm^3 and 654.987 mm^3 and 201.421 mm^3 and 423.505 mm^3 and 90.8277 mm^3
Tumor volume (H526 SCLC tumors; 0.75mg/kg p.o. QD x 21D, day 7): 723.612 mm^3 and 1124.37 mm^3 and 964.914 mm^3 and 402.947 mm^3 and 655.847 mm^3 and 216.235 mm^3
Tumor volume (H526 SCLC tumors; 0.75mg/kg p.o. QD x 21D, day 10): 1123.82 mm^3 and 1337.09 mm^3 and 1219.11 mm^3 and 614.795 mm^3 and 939.345 mm^3 and 324.637 mm^3
Tumor volume (H526 SCLC tumors; 0.75mg/kg p.o. QD x 21D, day 14): 1169.07 mm^3 and 1508.45 mm^3 and 1544.25 mm^3 and 755.744 mm^3 and 1018.31 mm^3 and 369.016 mm^3
Tumor volume (H526 SCLC tumors; 0.75mg/kg p.o. QD x 21D, day 17): 1563.43 mm^3 and 1842.12 mm^3 and 2108.97 mm^3 and 937.093 mm^3 and 1199.84 mm^3 and 528.17 mm^3
Tumor volume (H526 SCLC tumors; 0.75mg/kg p.o. QD x 21D, day 20): 1882.72 mm^3 and 1980.4 mm^3 and 2365.8 mm^3 and 1110.57 mm^3 and 1230.51 mm^3 and 727.098 mm^3
Tumor volume (H526 SCLC tumors; 1.5mg/kg p.o. BID x 21D, day 0): 109.221 mm^3 and 224.83 mm^3 and 299.894 mm^3
Tumor volume (H526 SCLC tumors; 1.5mg/kg p.o. BID x 21D, day 3): 144.898 mm^3 and 505.755 mm^3
Tumor volume (H526 SCLC tumors; 1.5mg/kg p.o. BID x 21D, day 7): 197.484 mm^3 and 503.899 mm^3
Tumor volume (H526 SCLC tumors; 1.5mg/kg p.o. BID x 21D, day 10): 131.255 mm^3 and 391.019 mm^3
Tumor volume (H526 SCLC tumors; 1.5mg/kg p.o. BID x 21D, day 14): 62.3145 mm^3 and 300.826 mm^3
Tumor volume (H526 SCLC tumors; 1.5mg/kg p.o. BID x 21D, day 17): 47.429 mm^3 and 191.773 mm^3
Tumor volume (H526 SCLC tumors; 1.5mg/kg p.o. BID x 21D, day 20): 26.6114 mm^3 and 100.415 mm^3 and 135.956 mm^3
Tumor volume (H526 SCLC tumors; 1.5mg/kg p.o. QD x 21D, day 0): 70.0321 mm^3 and 190.911 mm^3 and 142.166 mm^3 and 225.589 mm^3 and 289.503 mm^3 and 248.923 mm^3
Tumor volume (H526 SCLC tumors; 1.5mg/kg p.o. QD x 21D, day 3): 54.6804 mm^3 and 344.715 mm^3 and 214.258 mm^3 and 388.716 mm^3 and 680.326 mm^3 and 337.153 mm^3
Tumor volume (H526 SCLC tumors; 1.5mg/kg p.o. QD x 21D, day 7): 52.3406 mm^3 and 448.169 mm^3 and 304.6 mm^3 and 593.496 mm^3 and 1004.88 mm^3 and 603.12 mm^3
Tumor volume (H526 SCLC tumors; 1.5mg/kg p.o. QD x 21D, day 10): 65.7752 mm^3 and 568.076 mm^3 and 360.126 mm^3 and 706.593 mm^3 and 1344.39 mm^3 and 669.797 mm^3
Tumor volume (H526 SCLC tumors; 1.5mg/kg p.o. QD x 21D, day 14): 53.8674 mm^3 and 610.408 mm^3 and 386.917 mm^3 and 812.577 mm^3 and 1371.12 mm^3 and 772.943 mm^3
Tumor volume (H526 SCLC tumors; 1.5mg/kg p.o. QD x 21D, day 17): 48.5889 mm^3 and 810.7 mm^3 and 443.445 mm^3 and 889.286 mm^3 and 1654.72 mm^3 and 1027.16 mm^3
Tumor volume (H526 SCLC tumors; 1.5mg/kg p.o. QD x 21D, day 20): 34.4047 mm^3 and 640.677 mm^3 and 402.424 mm^3 and 852.013 mm^3 and 1472.9 mm^3 and 894.82 mm^3
effect on tumor growth (H526 SCLC tumors; H526 SCLC, oral, 3 mg/kg per day or 1.5 mg/kg twice per day, 21 days): regressed established H526 SCLC tumors
